Test results taken from patent publication US7825226B2, “Glycoprotein synthesis” (The Scripps Research Institute, priority 2002, dated 2010).

Experiments:
E. coli DH10B cells = assay: growth rate of cells grown with the unnatural amino acid; details: 1 mM; cells transformed with mutRNACUA^Tyr, LW1RS and Z domain gene (Lys7TAG)
Method: E. coli DH10B cells cotransformed with pLEIZ and pBK-LW1RS were grown in minimal media containing 1% glycerol and 0.3 mM leucine (GMML media) with 25 μg/mL kanamycin, 34 μg/mL of chloramphenicol, and 1.0 mM p-acetyl-(±)-phenylalanine.
Cells transformed with the mutRNACUA^Tyr, LW1RS and Z domain gene (Lys7TAG) were grown in the presence of 1 mM p-acetyl-(±)-phenylalanine.

[1] = target: T1, bovine milk galactosyltransferase (Bos taurus, UniProt P08037); assay: on-blot galactosyltransferase labeling with UDP-[H^3]galactose; assay type: biochemical; details: 1 μg protein on PVD membrane, 24 hours at room temperature
T1 construct: from tissue; host or cells: bovine milk
T1 sequence (P08037 79-402 limits assumed): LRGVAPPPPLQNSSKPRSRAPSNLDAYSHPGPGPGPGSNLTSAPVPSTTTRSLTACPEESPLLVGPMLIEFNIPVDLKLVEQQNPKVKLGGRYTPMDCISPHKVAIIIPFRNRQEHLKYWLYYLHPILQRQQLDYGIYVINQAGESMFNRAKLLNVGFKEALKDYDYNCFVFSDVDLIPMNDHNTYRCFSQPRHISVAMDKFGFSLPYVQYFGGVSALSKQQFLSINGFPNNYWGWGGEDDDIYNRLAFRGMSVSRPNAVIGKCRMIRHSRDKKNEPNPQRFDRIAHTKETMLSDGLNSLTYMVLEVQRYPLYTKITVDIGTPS
Text: We also investigated whether the O-GlcNAc-serine residue in myoglobin could be selectively modified with a galactosyltransferase. Beta-1,4-galactosyltransferase is known to transfer galactose (Gal) from the sugar nucleotide UDP-Gal to the 4 position of an N-acetylglucosamine (GlcNAc) to form Galβ1,4GlcNAc. To determine if the O-glycosylated myoglobin can be modified with UDP-Gal, both wild-type and O-glycosylated myoglobin were resolved by SDS-PAGE and transferred to a PVD membrane. The membrane was then incubated with bovine milk galactosyltransferase and radioactive UDP-[H^3]-galactose at room temperature for 24 hours. See, e.g., K. Kamemura, et al., (2002), J. Biol. Chem. 277:19229. Incorporation of [H^3]-Gal was monitored by exposing the membrane to X-ray film. […] See FIG. 6, Panel B. FIG. 6, Panel B illustrates on-blot galactosyltransferase labeling glycomyoglobin with UDP-[H^3]galactose. Wild type myoglobin (1 μg) and Gly4→Compound A mutant myoglobin (1 μg) were resolved by 12% SDS-PAGE and transferred to a PVD membrane. The membrane was then treated with bovine milk galactosyltransferase (1 U), UDP-[H^3]galactose (0.5 μCi) and calf intestinal alkaline phosphatase (1 U) for 24 hours at room temperature. […]
(§1) Expression and characterization of mutant myoglobin. […] Proteins were analyzed by 12% SDS-PAGE and silver-stained. […]

[2] = test system: Bandeiraea simplicifolia II (BSII); assay: ELISA-like assay of binding of a GlcNAc-specific lectin; details: 200 ng immobilized protein, absorbance at 405 nm
Method: Several additional experiments were performed to further characterize the mutant myoglobin. First, an ELISA-like assay was used to analyze the binding of a GlcNAc-specific lectin, Bandeiraea simplicifolia II (BSII) (see, e.g., S. Ebisu, et al., (1978), Carbohydr. Res. 61:129), to wild-type myoglobin and glyco-myoglobin. See FIG. 6, Panel A. FIG. 6, Panel A illustrates binding of a GlcNAc-specific lectin, Banderiraea simplicifolia II (BSII), to wild-type myoglobin and glycomyoglobin. A405 values are shown for wild-type myoglobin, glycomyoglobin, and negative control (no lectin added). Gly4→Compound A mutant myoglobin (200 ng) and wild type myoglobin (200 ng) were immobilized in microtiter plate wells and subsequently incubated with biotinylated BSII and streptavidin-alkaline phosphatase conjugate. Wells were incubated with p-nitrophenyl phosphate and monitored by measuring the absorbance at 405 nm. The two forms of myoglobin were immobilized in microtiter plate wells and then incubated with biotinylated BSII, streptavidin-alkaline phosphatase conjugate, and p-nitrophenyl phosphate, respectively.
as §1

| incorporation of [H^3]-Gal (X-ray film) [1] | Compound | effect on growth rate of cells (E. coli DH10B cells) | lectin binding signal (A405) [2] |
| --- | --- | --- | --- |
|  | CC(=O)c1ccc(CC(N)C(=O)O)cc1 (racemic) [p-acetyl-(±)-phenylalanine] | did not affect the growth rate of cells |  |
| no detectable signal | wild-type myoglobin: wild-type myoglobin used for comparison |  | signal equivalent to negative control wells |
